Measurements taken from PMC9551036, “A selective and orally bioavailable VHL-recruiting PROTAC achieves SMARCA2 degradation in vivo” (Nature Communications, 2022).
Where “and” joins values, the source holds several entries; their conditions need not be identical. Equal values may be shown once. Read-outs that look alike come from different tables or passages of the source.

How the values were obtained:
[1] = target: VCB: PROTAC: SMARCA2^BD ternary complex (Homo sapiens, UniProt P40337+P51531); assay: TR-FRET ternary complex affinity and cooperativity, SMARCA2; type: binding; set-up: P51531-2, residues 1373-1493 with additional N-terminal SM residues; GST (TEV site) (N); His6 (TEV site) (N, cleaved yes); made in house; host or cells: SMARCA2^BD: Escherichia coli BL21(DE3)
Sequence of VCB: PROTAC: SMARCA2^BD ternary complex (Homo sapiens, UniProt P40337+P51531) (P51531 with tags, fused parts or gaps isoform P51531-2): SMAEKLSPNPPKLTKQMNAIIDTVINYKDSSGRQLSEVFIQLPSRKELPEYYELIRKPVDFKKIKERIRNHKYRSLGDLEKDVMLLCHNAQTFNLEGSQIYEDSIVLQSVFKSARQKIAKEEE
Sequence of VCB: PROTAC: SMARCA2^BD ternary complex (Homo sapiens, UniProt P40337+P51531) (P40337 54-213): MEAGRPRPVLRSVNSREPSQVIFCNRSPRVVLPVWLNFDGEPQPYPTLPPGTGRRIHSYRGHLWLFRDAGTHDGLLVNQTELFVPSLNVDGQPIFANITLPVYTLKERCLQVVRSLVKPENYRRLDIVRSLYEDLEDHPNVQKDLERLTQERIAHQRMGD
Sequence of VCB: PROTAC: SMARCA2^BD ternary complex (Homo sapiens, UniProt P40337+P51531) (Q15369 17-112 partner): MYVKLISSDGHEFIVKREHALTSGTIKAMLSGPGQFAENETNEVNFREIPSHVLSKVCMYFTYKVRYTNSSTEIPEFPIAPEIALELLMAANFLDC
Sequence of VCB: PROTAC: SMARCA2^BD ternary complex (Homo sapiens, UniProt P40337+P51531) (Q15370 1-104 partner): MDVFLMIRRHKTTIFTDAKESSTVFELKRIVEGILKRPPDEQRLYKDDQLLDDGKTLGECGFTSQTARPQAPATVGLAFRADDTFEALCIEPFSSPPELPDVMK

NCI-H1568 cells = assay: Cell viability assay (CellTiter Glo) in NCI-H1568; type: cell-based, human; details: for EC50: Homo sapiens, NCI-H1568, […], read-out: EC50 cell proliferation (CellTiter Glo)
Method: 500–2000 cells were seeded in white, clear bottom 96-well plates (Corning or Perkin Elmer) in 180–200 µl medium per well. The next day, compounds were added using a digital dispenser and a T0 sample was measured for reference. […], and viability (luminescence) was measured using CellTiter Glo or CellTiter Glo 2.0 (Promega) according to manufacturer’s instructions after equilibrating cells and reagents at room temperature and 10–20 min incubation time while shaking.

[2] = target: T1, VCB: PROTAC: SMARCA2^BD ternary complex (Homo sapiens, UniProt P51531); assay: TR-FRET ternary complex affinity and cooperativity, SMARCA2; type: binding
T1 construct: P51531-2, residues 1373-1493 with additional N-terminal SM residues; GST (TEV site) (N); His6 (TEV site) (N, cleaved yes); made in house; host or cells: SMARCA2^BD: Escherichia coli BL21(DE3)
T1 sequence (P51531 with tags, fused parts or gaps isoform P51531-2): as the sequence (P51531 with tags, fused parts or gaps isoform P51531-2) above

[3] = target: T2, (Homo sapiens, UniProt P51532); assay: TR-FRET ternary complex affinity and cooperativity, SMARCA4; type: binding
T2 construct: P51532, residues 1448–1569 with additional N-terminal SM residues; GST (TEV site) (N); His6 (TEV site) (N, cleaved yes); made in house; host or cells: SMARCA4^BD: Escherichia coli BL21(DE3)
T2 sequence (P51532 1448-1569): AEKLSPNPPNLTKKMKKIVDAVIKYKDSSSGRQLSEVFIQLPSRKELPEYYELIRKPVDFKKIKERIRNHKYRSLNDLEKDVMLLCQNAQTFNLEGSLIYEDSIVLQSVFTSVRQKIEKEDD

SMARCA4 = SMARCA4 (Homo sapiens, UniProt P51532); assay: SMARCA4 capillary electrophoresis protein assay in RKO cells; type: cell-based; set-up: endogenous in cells; host or cells: RKO, HCT116, LU99, HCC-364, HCT-15, HCC4006, SK-N-AS; details: mean ± SD; for Dmax: RKO
Sequence of SMARCA4 (P51532 whole entry): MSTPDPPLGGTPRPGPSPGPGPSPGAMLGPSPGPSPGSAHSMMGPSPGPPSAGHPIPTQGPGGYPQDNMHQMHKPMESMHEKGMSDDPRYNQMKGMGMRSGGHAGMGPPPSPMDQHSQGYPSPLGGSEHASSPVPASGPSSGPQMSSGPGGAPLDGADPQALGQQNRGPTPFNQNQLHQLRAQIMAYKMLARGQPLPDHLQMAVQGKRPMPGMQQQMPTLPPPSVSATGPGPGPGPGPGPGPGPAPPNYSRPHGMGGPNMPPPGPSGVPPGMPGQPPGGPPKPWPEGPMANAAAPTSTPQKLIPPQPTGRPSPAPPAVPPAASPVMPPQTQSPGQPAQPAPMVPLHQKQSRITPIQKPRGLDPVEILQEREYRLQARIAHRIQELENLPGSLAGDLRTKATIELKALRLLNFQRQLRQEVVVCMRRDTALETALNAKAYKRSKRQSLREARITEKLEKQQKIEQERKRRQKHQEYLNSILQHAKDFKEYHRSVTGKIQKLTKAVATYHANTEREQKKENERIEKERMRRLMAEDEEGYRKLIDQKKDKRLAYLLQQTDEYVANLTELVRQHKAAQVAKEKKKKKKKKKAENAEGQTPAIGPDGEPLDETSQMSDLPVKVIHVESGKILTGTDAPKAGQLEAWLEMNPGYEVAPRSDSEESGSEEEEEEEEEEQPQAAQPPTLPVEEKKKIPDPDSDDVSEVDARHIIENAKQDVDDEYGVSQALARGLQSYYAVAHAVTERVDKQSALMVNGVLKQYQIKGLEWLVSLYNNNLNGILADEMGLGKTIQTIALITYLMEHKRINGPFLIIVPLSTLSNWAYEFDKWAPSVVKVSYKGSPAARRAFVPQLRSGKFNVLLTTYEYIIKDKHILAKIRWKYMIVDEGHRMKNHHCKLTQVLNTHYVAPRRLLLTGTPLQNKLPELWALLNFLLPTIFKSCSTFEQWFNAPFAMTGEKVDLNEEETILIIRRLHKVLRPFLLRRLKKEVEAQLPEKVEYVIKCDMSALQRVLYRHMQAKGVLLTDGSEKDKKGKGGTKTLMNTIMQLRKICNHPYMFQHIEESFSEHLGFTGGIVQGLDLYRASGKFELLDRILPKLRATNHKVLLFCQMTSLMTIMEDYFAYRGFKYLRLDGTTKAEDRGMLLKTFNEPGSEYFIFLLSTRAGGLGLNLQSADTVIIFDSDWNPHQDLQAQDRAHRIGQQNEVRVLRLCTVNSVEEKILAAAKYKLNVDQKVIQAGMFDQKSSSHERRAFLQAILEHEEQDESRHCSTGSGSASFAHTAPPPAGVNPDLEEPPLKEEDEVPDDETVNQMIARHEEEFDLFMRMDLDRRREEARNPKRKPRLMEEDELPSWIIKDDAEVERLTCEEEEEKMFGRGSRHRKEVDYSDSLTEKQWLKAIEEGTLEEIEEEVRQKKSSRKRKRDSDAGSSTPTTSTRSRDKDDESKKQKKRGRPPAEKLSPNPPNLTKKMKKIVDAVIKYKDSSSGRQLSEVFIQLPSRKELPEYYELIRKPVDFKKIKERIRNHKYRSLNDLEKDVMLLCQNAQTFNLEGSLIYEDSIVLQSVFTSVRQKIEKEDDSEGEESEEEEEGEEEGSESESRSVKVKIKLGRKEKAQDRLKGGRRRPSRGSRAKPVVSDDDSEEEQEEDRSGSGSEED
Method: 130,000–200,000 cells were seeded in 24-well plates and incubated until settled down or overnight. Compounds were dissolved in DMSO and added to cells in indicated concentrations using a digital dispenser following an optional media change. Cells were incubated for 4 or 18 h as indicated. For SMARCA2/4 half-life determination, 150,000 or 200,000 cells were seeded in 24-well plates. The next day, 50 µg/ml cycloheximide (Sigma) was added and cells were incubated for 1–24 h. For SMARCA2/4 re-synthesis measurements, 200,000 cells were seeded in 24-well plates. The next day, 100 nM compound 6 was added for 4 h to degrade SMARCA2/4, and a sample was taken as baseline for normalisation. To allow re-synthesis, a VHL binder (compound 32, 25 or 50 µM) was then added for 3 or 24 h. Medium was removed, cells were washed with PBS and lysed with 80 µl Lysis Buffer (MSD Tris Lysis Buffer (#R60TX-2) + Halt Inhibitor Cocktail (100x) + Benzonase 0.5 µL/ml). Samples were frozen at −80 °C and thawed at room temperature before use. Samples were transferred to a V-bottom plate and insoluble debris was pelleted by centrifugation for 5 min at maximum speed. The supernatant was transferred to a fresh plate. Master Mix and Ladder were prepared according to manufacturer’s instructions for 12–230 kDa Wes Separation Module, 8 × 25 capillary cartridges, Protein Simple #SM-W004 with Anti-Rabbit Detection Module for Wes, Peggy Sue or Sally Sue, Protein Simple #DM-001. 4.8 µl lysate were mixed with 1.2 µl Master Mix to achieve a protein concentration of ~0.5 µg/µl. Antibodies were diluted in Antibody Diluent II (SMARCA2 Sigma #HPA029981 RRID:AB_10602406 1:25–100, SMARCA4 Cell Signalling #49360 clone D1Q7F RRID:AB_2728743 1:15–120 or Abcam #ab110641 clone EPNCIR111A RRID:AB_10861578 1:60, GAPDH Abcam #ab9485 RRID:AB_307275 1:250). Wes plates were prepared and run according to manufacturer’s instructions. Proteins were quantified with accompanying Compass Software. SMARCA2/4 protein levels were normalised to GAPDH. […] Where applicable, curves were fitted using a 4-parametric logistic model.

PBRM1 BD = target: T3, PBRM1 BD (Homo sapiens, UniProt Q86U86); assay: TR-FRET binary and ternary (PROTAC + VCB) affinity, PBRM1 bromodomain; type: binding; details: individual replicates
T3 construct: GST (TEV site) (N); made in house; host or cells: Escherichia coli BL21(DE3)

[4] = PROTAC + VCB, individual replicates, read-out: Ternary SMARCA2 BD EC50 (PROTAC + VCB)
[5] = TR-FRET competition for SMARCA2BD, + VCB, mean ± SD, read-out: TR-FRET Ternary SMARCA2BD EC50 (PROTAC + VCB)
[6] = TR-FRET competition for SMARCA2BD, without VCB, mean ± SD, read-out: TR-FRET SMARCA2BD EC50
[7] = binary, PROTAC alone, individual replicates, read-out: SMARCA2 BD EC50
[8] = TR-FRET competition for SMARCA4BD, without VCB, mean ± SD, read-out: TR-FRET SMARCA4BD EC50
[9] = binary, PROTAC alone, individual replicates, read-out: SMARCA4 BD EC50
[10] = PROTAC + VCB, read-out: Ternary PBRM1 BD EC50 (PROTAC + VCB)
[11] = binary, PROTAC alone, read-out: PBRM1 EC50

Structure (SMILES): CN1CCC(c2ccc3c(c2)n(C2CCCC2)c2nc(=O)c4c(Br)cccc4n32)CC1 [compound 3]
- EC50 [1, 4]: 47 nM (2×) and 96.4 nM and 69.7 nM and 57.6 nM and 57.7 nM and 58.1 nM and 59.4 nM (2×) and 54.3 nM and 59.7 nM and 63.5 nM (2×) and 58 nM and 45.7 nM (2×) and 61 nM and 62.5 nM and 63 nM and 66 nM and 76.9 nM and 76.2 nM and 50.2 nM (2×) and 85.7 nM and 89.5 nM and 39.5 nM and 43.8 nM and 41.8 nM (2×) and 41.3 nM and 35.6 nM and 36.2 nM (2×) and 55 nM (2×) and 47.9 nM and 37.4 nM and 47.3 nM and 34.2 nM and 38 nM and 43.3 nM and 32.2 nM and 42.1 nM and 43.2 nM and 39.4 nM and 37.7 nM and 41.7 nM (2×) and 32.6 nM and 30.6 nM and 34.7 nM and 32.9 nM and 43.9 nM and 57.4 nM and 44.7 nM and 46.2 nM (5×) and 47.6 nM (2×) and 48.7 nM (3×) and 51.6 nM and 50.9 nM and 44.2 nM and 41.9 nM and 46.5 nM and 46.1 nM (2×) and 48.5 nM and 51.2 nM and 50.5 nM and 49.4 nM and 51.5 nM and 52.8 nM and 52.3 nM and 53.6 nM and 53.3 nM and 52.1 nM (2×) and 54.8 nM (2×) and 53.5 nM (2×) and 45.5 nM and 46.3 nM and 53.7 nM and 51.7 nM and 68.5 nM and 52.7 nM and 51.8 nM and 46.9 nM and 45.4 nM and 45.9 nM and 46.6 nM and 42.5 nM and 55.4 nM and 86.5 nM and 52.6 nM and 56.7 nM and 66.2 nM and 63.7 nM and 65.2 nM and 64.5 nM and 64.2 nM and 64.6 nM and 52.2 nM and 55.3 nM (2×) and 96.6 nM and 109 nM and 107 nM and 55.1 nM and 53 nM and 33.2 nM and 32.3 nM and 23.5 nM and 31.2 nM and 34 nM and 96.8 nM and 36 nM and 36.8 nM and 35.3 nM and 36.1 nM and 36.6 nM and 42.7 nM and 44.4 nM (2×) and 78.2 nM and 158 nM and 48.4 nM and 54 nM and 57.8 nM and 53.1 nM and 58.7 nM
- EC50 [1, 5]: 48 ± 17 nM
- EC50 (NCI-H1568 cells): 1260 nM
- EC50 [2, 6]: 48 ± 17 nM
- EC50 [2, 7]: 41.5 nM (2×) and 50.5 nM (2×) and 46.7 nM (2×) and 58.6 nM (2×) and 54.9 nM and 55.3 nM (2×) and 61.9 nM and 60.8 nM and 59.4 nM and 56.4 nM (2×) and 58.5 nM and 55.9 nM and 44.1 nM (3×) and 66.1 nM and 65.6 nM and 59.3 nM and 60.7 nM and 64.2 nM and 61.1 nM (2×) and 63.1 nM (2×) and 72.4 nM and 76.3 nM and 46.2 nM (2×) and 47.7 nM (2×) and 84.8 nM and 89.7 nM and 32 nM and 34.9 nM and 57.7 nM and 57.6 nM and 55.4 nM and 26.3 nM and 29.8 nM and 46.1 nM and 26.7 nM and 39.1 nM and 38.8 nM (2×) and 42.6 nM and 42.2 nM and 43 nM and 27.6 nM and 28.3 nM and 27.5 nM (2×) and 46 nM and 60.6 nM and 42.3 nM and 49.5 nM (2×) and 49.3 nM and 42.8 nM and 48.8 nM and 46.3 nM (2×) and 49.7 nM and 47.2 nM (2×) and 49 nM (2×) and 50.2 nM and 49.2 nM (3×) and 51.2 nM and 50.1 nM (2×) and 51.1 nM and 50.4 nM and 52.4 nM (2×) and 52.5 nM (2×) and 52 nM (2×) and 56.1 nM and 68 nM and 55.7 nM and 52.1 nM and 60.9 nM and 51.8 nM and 47 nM and 47.4 nM and 48.2 nM and 102 nM (2×) and 53.7 nM and 54.7 nM and 56.6 nM (2×) and 44.3 nM (2×) and 47.5 nM and 101 nM and 53.5 nM and 64.4 nM and 66.2 nM and 65.5 nM and 64.6 nM and 64.8 nM and 92.1 nM and 55.6 nM and 55.5 nM and 112 nM and 107 nM and 59.8 nM and 54.4 nM and 32.2 nM and 41.9 nM and 44.7 nM (2×) and 30.9 nM and 79.5 nM and 33.5 nM and 26.9 nM and 33.6 nM and 39.7 nM and 36.7 nM and 36.8 nM and 37.3 nM and 38.4 nM and 51.3 nM and 42.7 nM and 45.1 nM and 46.5 nM and 157 nM and 52.2 nM
- EC50 [3, 8]: 107 ± 29 nM
- EC50 [3, 9]: 95.4 nM and 105 nM and 124 nM and 115 nM and 117 nM and 113 nM (3×) and 121 nM and 114 nM and 81.2 nM and 90.5 nM and 95.1 nM and 82.4 nM and 86.5 nM and 90.1 nM and 86 nM and 90.3 nM (2×) and 78 nM and 69.2 nM and 191 nM and 161 nM and 107 nM and 99.4 nM and 89 nM and 90.2 nM and 81.3 nM and 182 nM and 188 nM and 131 nM and 128 nM and 126 nM and 132 nM and 94.7 nM and 129 nM and 86.8 nM and 102 nM and 109 nM and 112 nM
- DC50 (SMARCA4; RKO (4 h)): > 25000 nM
- DC50 (SMARCA4; RKO (18 h)): 11400 nM
- Dmax (SMARCA4; RKO (18 h)): 82 ± 32%
- EC50 (PBRM1 BD; [10]): 49.4 nM and 29.7 nM (2×) and 21.8 nM and 18 nM and 21.3 nM and 22.2 nM and 18.6 nM and 21.6 nM and 46 nM and 35.8 nM and 25 nM and 35.5 nM (2×) and 36.4 nM and 29.1 nM and 25.9 nM and 29.2 nM and 27.1 nM and 30.4 nM (2×) and 31.6 nM and 33.5 nM and 23 nM (2×) and 29.5 nM and 54.4 nM and 51.5 nM and 24 nM and 36.6 nM and 32.2 nM and 65.8 nM and 63.7 nM and 42.6 nM and 25.7 nM and 43.8 nM and 40.2 nM and 16.5 nM and 24.8 nM and 34.1 nM and 26.1 nM and 30.2 nM
- EC50 (PBRM1 BD; [11]): 27.3 nM and 29.3 nM and 18.1 nM and 21.5 nM and 21.7 nM and 19.9 nM and 23.1 nM and 18.9 nM and 42.5 nM and 22.4 nM and 27 nM and 28.2 nM and 20.7 nM and 30.6 nM and 34 nM (3×) and 32.6 nM and 30.2 nM and 34.7 nM and 36.6 nM and 33.4 nM and 20.8 nM and 53.5 nM and 23.4 nM and 49.7 nM and 23 nM and 24 nM and 38.4 nM and 37.6 nM and 35 nM and 67.5 nM and 70.9 nM and 46.6 nM and 44.1 nM and 25.3 nM and 42.6 nM and 18.7 nM and 31.1 nM and 26.8 nM and 30.5 nM and 40.9 nM

Structure (SMILES): Cc1ncsc1-c1ccc([C@H](COC(C)CN2CCC(c3ccc4c(c3)n(C3CCCC3)c3nc(=O)c5c(Br)cccc5n43)CC2)NC(=O)[C@@H]2C[C@@H](O)CN2C(=O)[C@@H](NC(=O)C2(F)CC2)C(C)(C)C)cc1 (stereo partly shown) [compound 9]
- EC50 [1, 4]: 20.6 nM and 18 nM and 20.2 nM and 22.8 nM and 25.6 nM and 25.2 nM and 34 nM and 21.7 nM and 14.5 nM and 19.9 nM and 18.7 nM
- EC50 [1, 5]: 21 ± 5 nM
- EC50 (NCI-H1568 cells): 45 ± 51 nM
- IC50 (NCI-H1568 cells; NCI-H1568, (18h), CellTiter Glo, individual replicates, read-out: NCI-H1568 (18h) CTG): 48.2 nM and 116 nM and 16.6 nM
- EC50 [2, 6]: 143 ± 27 nM
- EC50 [2, 7]: 132 nM and 149 nM and 140 nM (2×) and 172 nM and 134 nM and 115 nM and 202 nM and 128 nM
- EC50 [3, 8]: 265 ± 34 nM
- EC50 [3, 9]: 228 nM and 295 nM and 276 nM
- DC50 (SMARCA4; RKO (4 h)): > 25000 nM
- DC50 (SMARCA4; RKO (18 h)): 1780 nM
- Dmax (SMARCA4; RKO (18 h)): 88 ± 16%
- EC50 (PBRM1 BD; [10]): 6.04 nM and 5.66 nM and 5.49 nM and 5.75 nM and 6.81 nM and 13.2 nM and 4.82 nM
- EC50 (PBRM1 BD; [11]): 31.7 nM and 35 nM and 40.8 nM and 29.8 nM and 31 nM
